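How tested: cells in 96-well plates exposed to compound for 48 hours at five concentrations. GI50: concentration for 50% inhibition of growth.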 Active and inactive are the calls of the source. No stated cut-off is given here; in the data, active = GI50 up to about 1.1 µM and inactive = higher.
Tests used:
Experiment in all cases: NCI tumour cell line growth inhibition, 48 h
A549 = tested on: A549
CCRF-CEM = tested on: CCRF-CEM
HT-29 = tested on: HT-29
KM12 = tested on: KM12
LOX IMVI = tested on: LOX IMVI
Malme-3M = tested on: Malme-3M
NCI-H460 = tested on: NCI-H460
OVCAR-5 = tested on: OVCAR-5
RPMI-8226 = tested on: RPMI-8226
RXF 393 = tested on: RXF 393
SF-268 = tested on: SF-268
SF-539 = tested on: SF-539
SK-OV-3 = tested on: SK-OV-3
SNB-75 = tested on: SNB-75
SR = tested on: SR
TK-10 = tested on: TK-10
UO-31 = tested on: UO-31

Row | SMILES | GI50 (A549) | GI50 (CCRF-CEM) | GI50 (HT-29) | GI50 (KM12) | GI50 (LOX IMVI) | GI50 (Malme-3M) | GI50 (NCI-H460) | GI50 (OVCAR-5) | GI50 (RPMI-8226) | GI50 (RXF 393) | GI50 (SF-268) | GI50 (SF-539) | GI50 (SK-OV-3) | GI50 (SNB-75) | GI50 (SR) | GI50 (TK-10) | GI50 (UO-31)
1 | C/C(=N\NC(=S)NC(CCC(=O)O)C(=O)O)c1ccccn1 (configuration not stated) | > 100 µM (inactive) | > 100 µM (inactive) | > 100 µM (inactive) | > 100 µM (inactive) | > 100 µM (inactive) | > 100 µM (inactive) | > 100 µM (inactive) | > 100 µM (inactive) | > 100 µM (inactive) | > 100 µM (inactive) | > 100 µM (inactive) | > 100 µM (inactive) | > 100 µM (inactive) | > 100 µM (inactive) | > 100 µM (inactive) | > 100 µM (inactive) | > 100 µM (inactive)
2 | O=C(CSc1nnc(-c2ccc(/N=C\c3ccc(Cl)cc3)cc2)o1)Nc1ccc([N+](=O)[O-])cc1 | 39.9 µM (inactive) | 18.5 µM (inactive) | 19.5 µM (inactive) | > 10 µM (inactive) | 10.6 µM (inactive) | 92.3 µM (inactive) | 36.4 µM (inactive) |  | 2.45 µM (inactive) | 19.6 µM (inactive) | 24.3 µM (inactive) |  | 35.9 µM (inactive) | 25.4 µM (inactive) | 19 µM (inactive) | 51.4 µM (inactive) | 18.4 µM (inactive)
3 | COc1cc(/C=C2\NC(=O)C3Cc4c(OC)c(C)c(OC)c(OC)c4C2N3C)c(OC)c(C)c1OC (configuration not stated) | > 100 µM (inactive) | > 100 µM (inactive) | > 100 µM (inactive) | > 100 µM (inactive) | > 100 µM (inactive) | > 100 µM (inactive) |  | > 100 µM (inactive) |  | 85.3 µM (inactive) | > 100 µM (inactive) | > 100 µM (inactive) | > 100 µM (inactive) | > 100 µM (inactive) | > 100 µM (inactive) | > 100 µM (inactive) | > 100 µM (inactive)
4 | COc1cccc(N2C(=O)/C(=C/c3ccc(N(CCC#N)CCC#N)cc3)N=C2c2cc([N+](=O)[O-])ccc2Cl)c1 |  | 48.8 µM (inactive) | 47 µM (inactive) | 49.5 µM (inactive) |  | > 100 µM (inactive) | 43.5 µM (inactive) | 18.5 µM (inactive) | 68.1 µM (inactive) |  | > 100 µM (inactive) | > 100 µM (inactive) | > 100 µM (inactive) | 95.5 µM (inactive) | 32.1 µM (inactive) |  | 82 µM (inactive)
5 | COC1=CC(=O)C(Br)=CC1=O | > 100 µM (inactive) | 2.54 µM (inactive) | 19.2 µM (inactive) |  | 18.2 µM (inactive) | 21 µM (inactive) | > 100 µM (inactive) | > 10 µM (inactive) | 21.6 µM (inactive) | 18.2 µM (inactive) | 18.6 µM (inactive) |  | > 100 µM (inactive) | 15.2 µM (inactive) |  | 19.9 µM (inactive) | 17.5 µM (inactive)
6 | CSc1nc2c(nc(N)n2C2OC(CO)C(O)C(O)C2O)c(=O)[nH]1 (configuration not stated) | > 100 µM (inactive) | > 100 µM (inactive) | > 100 µM (inactive) | > 100 µM (inactive) | > 100 µM (inactive) | > 100 µM (inactive) | > 100 µM (inactive) |  |  | > 100 µM (inactive) | > 100 µM (inactive) | > 100 µM (inactive) | > 100 µM (inactive) | > 100 µM (inactive) | > 100 µM (inactive) | > 100 µM (inactive) | > 100 µM (inactive)
7 | CC1=C2C(=CC(C)(C)C2O)C(=O)C(C)(O)C12CC2 (configuration not stated) | 0.0135 µM (active) | 0.00531 µM (active) | 0.0028 µM (active) | 0.0158 µM (active) | 0.00478 µM (active) | 0.012 µM (active) | 0.0018 µM (active) | 0.0128 µM (active) |  | 0.00752 µM (active) | 0.00658 µM (active) | 0.0209 µM (active) | 0.0262 µM (active) | 0.0123 µM (active) | 0.00249 µM (active) | 0.0216 µM (active) | 0.0127 µM (active)
8 | COC(=O)CCC12CCC(=O)C1[C@@H](C(=O)OC)C[C@H]2C(=O)OC (some centres not stated) | > 100 µM (inactive) | > 100 µM (inactive) | > 100 µM (inactive) | > 100 µM (inactive) | > 100 µM (inactive) | > 100 µM (inactive) | > 100 µM (inactive) | > 100 µM (inactive) | > 100 µM (inactive) | > 100 µM (inactive) | > 100 µM (inactive) | > 100 µM (inactive) | > 100 µM (inactive) | > 100 µM (inactive) |  | > 100 µM (inactive) | > 100 µM (inactive)
9 | O=C(Nc1ccccc1)OCc1nc2c([nH]1)C(=O)C=CC2=O | 16.4 µM (inactive) | 3.34 µM (inactive) | 27.5 µM (inactive) | 15.6 µM (inactive) | 16.1 µM (inactive) | 6.4 µM (inactive) | 19.8 µM (inactive) | 22.2 µM (inactive) | 18.7 µM (inactive) | 10.8 µM (inactive) |  | > 100 µM (inactive) | 15.9 µM (inactive) | 19.3 µM (inactive) | 19.5 µM (inactive) | 14 µM (inactive) | 16.8 µM (inactive)

Source: ChEMBL document CHEMBL1201862, “PubChem BioAssay data set” (2004)
